These results are taken from paper PMC9106491, “In Vitro Antioxidant, Anti-Inflammatory, and Digestive Enzymes Inhibition Activities of Hydro-Ethanolic Leaf and Bark Extracts of Psychotria densinervia (K. Krause) Verdc” (Advances in Pharmacological and Pharmaceutical Sciences, 2022).

The nature of assay [1]: DPPH free radical scavenging. Conditions: 30 mins, 517 nm. The procedure:
The DPPH scavenging assay was conducted by the method of Sanchez-Moreno et al. with some modifications. DPPH (0.1 mM) stock solution was diluted in methanol, and the absorbance was adjusted to 1.5 at 517 nm wavelength. […] extracts (500 μl) at different concentrations (15.62, 31.25, 62.5, and 250 μg/ml) were mixed with 2000 μl of DPPH solution and read with the aid of a spectrophotometer at 517 nm after 30 mins of incubation in the dark.

Another assay in a line: ABTS radical scavenging. To be noted: 15 mins, 734 nm. The procedure:
ABTS scavenging activity was evaluated by the discoloration of the cationic radical ABTS^∗^+, as per the technique described by Arnao et al. with some modifications. Briefly, the ABTS reagent was obtained by mixing an ethanolic solution of ABTS (7.4 mM) and an aqueous solution of potassium persulfate (2.6 mM). After mixing, the solution was incubated in the dark for 24 hours. The ABTS solution obtained was diluted until an absorbance of 1.5 was obtained at 734 nm. Two hundred microliters of each extract or catechin at different concentrations (15.62, 31.25, 62.5, and 250 μg/ml) was added to 1800 μl of the ABTS solution prepared above. The mixture was incubated in the dark for 15 mins, and the absorbance was read with a spectrophotometer at 734 nm against the blank. Catechin was used as the standard. […] The IC50 was calculated as in DPPH.

Assay [2] concerns the target T1, porcine pancreatic lipase (Sus scrofa, UniProt P00591).
T1 construct: purchased Sigma-Alrich Chemical Co
T1 sequence (P00591 1-450): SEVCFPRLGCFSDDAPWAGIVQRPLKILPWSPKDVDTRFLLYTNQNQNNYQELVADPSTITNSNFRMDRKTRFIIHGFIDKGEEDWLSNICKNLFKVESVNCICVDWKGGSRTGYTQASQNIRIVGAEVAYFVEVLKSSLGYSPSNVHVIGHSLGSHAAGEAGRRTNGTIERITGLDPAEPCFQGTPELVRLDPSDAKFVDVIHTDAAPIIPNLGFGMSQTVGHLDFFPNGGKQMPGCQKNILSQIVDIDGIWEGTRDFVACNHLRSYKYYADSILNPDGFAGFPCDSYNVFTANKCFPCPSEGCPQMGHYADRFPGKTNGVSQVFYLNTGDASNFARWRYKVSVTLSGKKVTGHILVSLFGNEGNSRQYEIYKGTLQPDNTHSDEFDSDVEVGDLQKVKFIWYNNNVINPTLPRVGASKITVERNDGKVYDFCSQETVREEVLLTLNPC
The assay is described as follows: Pancreatic lipase inhibition. Conditions: read-out: inhibition percentage of lipase. The assay is classed as biochemical. As for the experimental part:
The method described by Kim et al. was used in this assay. […] The mixture was then incubated at 37°C for 37 mins. The reaction was started by the addition of 10 μl of p-nitrophenyl butyrate substrate (10 mM p-NPB) in dimethylformamide.

For assay [3], the target named is T2, pancreatic cholesterol esterase (Sus scrofa, UniProt A0A286ZKB1).
T2 sequence (A0A286ZKB1 95-682): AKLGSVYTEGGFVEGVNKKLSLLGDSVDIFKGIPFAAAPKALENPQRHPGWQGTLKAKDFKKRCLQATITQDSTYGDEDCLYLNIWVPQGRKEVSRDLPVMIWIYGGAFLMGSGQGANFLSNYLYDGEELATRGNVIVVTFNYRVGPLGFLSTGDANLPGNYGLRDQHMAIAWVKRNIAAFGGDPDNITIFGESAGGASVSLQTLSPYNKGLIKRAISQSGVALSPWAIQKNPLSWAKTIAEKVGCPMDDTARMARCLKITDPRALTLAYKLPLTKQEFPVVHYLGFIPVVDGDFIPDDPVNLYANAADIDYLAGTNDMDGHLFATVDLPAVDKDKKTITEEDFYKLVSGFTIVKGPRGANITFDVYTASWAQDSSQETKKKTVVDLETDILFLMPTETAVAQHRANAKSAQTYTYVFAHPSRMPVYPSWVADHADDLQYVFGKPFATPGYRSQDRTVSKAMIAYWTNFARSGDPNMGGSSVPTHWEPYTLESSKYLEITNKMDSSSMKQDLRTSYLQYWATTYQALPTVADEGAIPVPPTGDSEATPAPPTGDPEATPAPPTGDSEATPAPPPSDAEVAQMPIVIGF
To be noted: read-out: Cholesterol esterase IC50; p-NPB substrate.
Experimental: Briefly, 50 μl of the extracts at different concentrations (3.12, 6.25, 12.5, 25, 50, 100, and 200 μg/ml) was added to 50 μl of 5.16 mM taurocholic acid and 50 μl of an aqueous solution of cholesterol esterase and incubated for 10 mins at 25°C. Then, 50 μl of p-nitrophenyl butyrate substrate (0.2 mM) was added to the mixture and incubated for 5 mins at 25°C. Cholesterol esterase inhibitory activity was determined by measuring the hydrolysis of p-NPB to p-nitrophenol at 405 nm using an ELISA microplate reader (BK-EL10 C).
Anticholesterol esterase activity is given as IC50 values (the concentrations that inhibited 50% of the hydrolysis of pNPB to p-nitrophenol).

“And” between values parts separate entries of the source, which are not always exact repeats. Identical values can stand only once.

In the case of `O=C1O[C@H]([C@@H](O)CO)C(O)=C1O` [ascorbic acid], in assay [1], the “DPPH IC50” value is 71.78 ± 6.37 µg/mL and 71.98 ± 1.21 µg/mL. Consider `O.Oc1cc(O)c2c(c1)O[C@H](c1ccc(O)c(O)c1)[C@@H](O)C2` [catechin], for which the “ABTS IC50” value in “ABTS radical scavenging” turned out to be 33.48 ± 2.02 µg/mL. `CCCCCCCCCCC[C@@H](C[C@@H]1OC(=O)[C@H]1CCCCCC)OC(=O)[C@H](CC(C)C)NC=O` [orlistat]: the inhibition at 200 µg/mL in assay [2] stood at 97.83 ± 0.34%. In addition, the IC50 in assay [3] is 110 µM.
